The source of these data is patent US10538555B2, “Macrocyclic inhibitors of the PD-1/PD-L1 and CD80(B7-1)/PD-L1 protein/protein interactions” (BRISTOL-MYERS SQUIBB COMPANY, priority 2014, dated 2020).

Molecules are shown by their SMILES. pIC50: −log10 of the molar value. *1 amine or outer side, *2 acyl side, *3 side chain or, on linkers, in order; H or OH if unused. Where a SMILES comes first, the peptide text is derived from it. Bridges are numbered along the chain shown (N, C = ends). [ ]: non-standard residue; d: D form. ξ: configuration not given here. Trp(1-CH2COOH) = N[C@@H](Cc1cn(CC(=O)O)c2ccccc12)C(=O)O; Phe(3,4,5-F3) = N[C@@H](Cc1cc(F)c(F)c(F)c1)C(=O)O; NMePhe(4-F) = CN[C@@H](Cc1ccc(F)cc1)C(=O)O; Morpholine(3S-CO) = O=C(O)[C@@H]1COCCN1; Phe(4-F) = N[C@@H](Cc1ccc(F)cc1)C(=O)O; d(cisHyp) = O=C(O)[C@H]1C[C@@H](O)CN1; Hyp = O=C(O)[C@@H]1C[C@@H](O)CN1; NMeF = CN[C@@H](Cc1ccccc1)C(=O)O; X1 = O=C([C@H]1COCCN1[*:1])[*:2]; NMeE = CN[C@@H](CCC(=O)O)C(=O)O; dHyp = O=C(O)[C@H]1C[C@H](O)CN1; NMeL = CN[C@@H](CC(C)C)C(=O)O; NMehSer = CN[C@@H](CCO)C(=O)O; NMeNle = CCCC[C@H](NC)C(=O)O; Pip = O=C(O)[C@@H]1CCCCN1; dPip = O=C(O)[C@H]1CCCCN1; NMeA = CN[C@@H](C)C(=O)O; Orn = NCCC[C@H](N)C(=O)O; Dab = NCC[C@H](N)C(=O)O; Dap = NC[C@H](N)C(=O)O; ξC = NC(CS)C(=O)O

In one assay the target is T1, Human PD-L1/PD-1 (Homo sapiens, UniProt Q9NZQ7).
T1 construct: TVMV protease cleavage site (C); made in house; host or cells: HEK293T cells
T1 sequence (Q9NZQ7 with tags, fused parts or gaps): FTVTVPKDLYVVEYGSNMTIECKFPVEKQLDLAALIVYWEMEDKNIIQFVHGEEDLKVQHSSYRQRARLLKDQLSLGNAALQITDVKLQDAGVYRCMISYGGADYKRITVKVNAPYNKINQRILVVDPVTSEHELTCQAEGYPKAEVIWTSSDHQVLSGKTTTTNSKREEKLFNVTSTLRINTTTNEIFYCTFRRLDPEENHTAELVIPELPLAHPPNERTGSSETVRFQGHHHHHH
In words: HTRF Human PD-L1/PD-1 binding assay (PD-1-Ig/PD-L1-His). Particulars: PD-L1-His 10 nM, PD-1-Ig 20 nM; class symbol; read-out: HTRF Human PD-L1/PD-1 Binding Assay IC50 Range. An excerpt: Methods for Testing the Ability of Macrocyclic Peptides to Compete for the Binding of PD-1 to PD-L1 Using Homogenous Time-Resolved Fluorescence (HTRF) Binding Assays
The ability of the macrocyclic peptides of the present disclosure to bind to PD-L1 was investigated using a PD-1/PD-L1 Homogenous Time-Resolved Fluorescence (HTRF) binding assay.
Homogenous Time-Resolved Fluorescence (HTRF) Assays of Binding of Soluble PD-1 to Soluble PD-L1. Soluble PD-1 and soluble PD-L1 refers to proteins with carboxyl-end truncations that remove the transmembrane-spanning regions and are fused to heterologous sequences, specifically the Fc portion of the human immunoglobuling G sequence (Ig) or the hexahistidine epitope tag (His). All binding studies were performed in an HTRF assay buffer consisting of dPBS supplemented with 0.1% (w/v) bovine serum albumin and 0.05% (v/v) Tween-20. For the PD-1-Ig/PD-L1-His binding assay, inhibitors were pre-incubated with PD-L1-His (10 nM final) for 15 m in 4 μl of assay buffer, followed by addition of PD-1-Ig (20 nM final) in 1 μl of assay buffer and further incubation for 15 m. PD-L1 fusion proteins from either human, cynomolgus macaques, or mouse were used. HTRF detection was achieved using europium crypate-labeled anti-Ig monoclonal antibody (1 nM final) and allophycocyanin (APC) labeled anti-His monoclonal antibody (20 nM final). Antibodies were diluted in HTRF detection buffer and 5 μl was dispensed on top of binding reaction. The reaction was allowed to equilibrate for 30 minutes and signal (665 nm/620 nm ratio) was obtained using an EnVision fluorometer. Additional binding assays were established between PD-1-Ig/PD-L2-His (20 and 5 nM, respectively), CD80-His/PD-L1-Ig (100 and 10 nM, respectively) and CD80-His/CTLA4-Ig (10 and 5 nM, respectively). Competition studies between biotinylated Compound No. 71 and human PD-L1-His were performed as follows. Macrocyclic peptide inhibitors were pre-incubated with PD-L1-His (10 nM final) for 60 minutes in 4 μl of assay buffer followed by addition of biotinylated Compound No. 71 (0.5 nM final) in 1 μl of assay buffer. Binding was allowed to equilibrate for 30 minutes followed by addition of europium crypated labeled Streptavidin (2.5 pM final) and APC-labeled anti-His (20 nM final) in 5 μl of HTRF buffer. The reaction was allowed to equilibrate for 30 m and signal (665 nm/620 nm ratio) was obtained using an EnVision fluorometer.
Recombinant Proteins. Carboxyl-truncated human PD-1 (amino acids 25-167) with a C-terminal human Ig epitope tag [hPD-1 (25-167)-3S-IG] and human PD-L1 (amino acids 18-239) with a C-terminal His epitope tag [hPD-L1([…])-tobacco vein mottling virus protease cleavage site (TVMV)-His] were expressed in HEK293T cells and purified sequentially by rProteinA affinity chromatography and size exclusion chromatography.
(In general: TR-FRET usually uses a lanthanide donor and a delayed reading to cut background.)
As for `CCCC[C@H]1C(=O)N2CCC[C@@H]2C(=O)N2CCOC[C@H]2C(=O)N[C@@H](C(C)C)C(=O)N(C)[C@@H](Cc2ccccc2)C(=O)N[C@@H](Cc2ccc(O)cc2)C(=O)N2CCCC[C@@H]2C(=O)N[C@@H](Cc2c[nH]c3ccccc23)C(=O)N[C@@H](Cc2ccc(O)cc2)C(=O)N[C@@H](CC(C)C)C(=O)N[C@H](C(=O)NCC(N)=O)CSCC(=O)N[C@@H](Cc2cc(F)c(F)c(F)c2)C(=O)N(C)[C@@H](Cc2ccccc2)C(=O)N1C` [Example 3219] ({CH2CO}-[Phe(3,4,5-F3)][NMeF][NMeNle][dP][Morpholine(3S-CO)]V[NMeF]Y[dPip]WYLCG-NH2; thioether N-13), the pIC50 was 7.00 to 8.00.

Turning to `CCCC[C@H]1C(=O)N(C)[C@@H](CCCC)C(=O)N[C@@H](CCCNC(=N)N)C(=O)N[C@H](C(=O)NCC(N)=O)CSCC(=O)N[C@@H](Cc2ccc(O)cc2)C(=O)N2CCCC[C@H]2C(=O)N[C@@H](CC(=O)O)C(=O)N2CCC[C@H]2C(=O)N[C@@H](Cc2c[nH]cn2)C(=O)N[C@@H](CCCN)C(=O)N2C[C@H](O)C[C@H]2C(=O)N[C@@H](Cc2c[nH]c3ccccc23)C(=O)N[C@@H](CO)C(=O)N[C@@H](Cc2c[nH]c3ccccc23)C(=O)N1C` [Example 1537] ({CH2CO}-Y[Pip]DPH[Orn][Hyp]WSW[NMeNle][NMeNle]RCG-NH2; thioether N-14), the pIC50 was 7.00 to 8.00. Still for that read-out and setting: to `CCCC[C@H]1C(=O)N(C)[C@@H](CCCC)C(=O)N[C@@H](CCC(=O)O)C(=O)NC(C(=O)NCC(N)=O)CSCC(=O)N[C@@H](Cc2ccc(O)cc2)C(=O)N(C)[C@@H](C)C(=O)N[C@@H](CC(N)=O)C(=O)N2CCC[C@H]2C(=O)N[C@@H](Cc2c[nH]cn2)C(=O)N[C@@H](CC(N)=O)C(=O)N2CCC[C@H]2C(=O)N[C@@H](Cc2c[nH]c3ccccc23)C(=O)N[C@@H](CN)C(=O)N[C@@H](Cc2c[nH]c3ccccc23)C(=O)N1C` (some centres unmarked) [Example 9178] ({CH2CO}-Y[NMeA]NPHNPW[Dap]W[NMeNle][NMeNle]E[ξC]G-NH2; thioether N-14) belongs 6.00 to 7.00; to `CCCC[C@H]1C(=O)N2C[C@H](O)C[C@@H]2C(=O)N[C@@H](CC(=O)O)C(=O)N[C@@H](C(C)C)C(=O)N(C)[C@@H](Cc2ccccc2)C(=O)N[C@@H](CCC(=O)O)C(=O)N2C[C@H](O)C[C@@H]2C(=O)N[C@@H](Cc2c[nH]c3ccccc23)C(=O)N[C@@H](Cc2ccc(O)cc2)C(=O)N[C@@H](CN)C(=O)N[C@H](C(=O)NCC(N)=O)CSCC(=O)N[C@@H](Cc2cc(F)c(F)c(F)c2)C(=O)N(C)[C@@H](Cc2ccccc2)C(=O)N1C` [Example 9334] ({CH2CO}-[Phe(3,4,5-F3)][NMeF][NMeNle][d(cisHyp)]DV[NMeF]E[d(cisHyp)]WY[Dap]CG-NH2; thioether N-13), 7.00 to 8.00.

Take `CCCC[C@H]1C(=O)N(C)[C@@H](CCCC)C(=O)N[C@@H](CCC(=O)O)C(=O)N[C@H](C(=O)NCC(N)=O)CSCC(=O)N[C@@H](Cc2ccc(OC)cc2)C(=O)N(C)[C@@H](C)C(=O)N[C@@H](CCN)C(=O)N2CCC[C@H]2C(=O)N[C@@H](CN)C(=O)N[C@@H](CCCCN)C(=O)N2C[C@H](O)C[C@H]2C(=O)N[C@@H](Cc2c[nH]c3ccccc23)C(=O)N[C@@H](CCN)C(=O)N[C@@H](Cc2c[nH]c3ccccc23)C(=O)N1C` [Example 7123] ({CH2CO}-Y(Me)[NMeA][Dab]P[Dap]K[Hyp]W[Dab]W[NMeNle][NMeNle]ECG-NH2; thioether N-14): the pIC50 was 7.00 to 8.00. `CCCC[C@H]1C(=O)N2CCC[C@@H]2C(=O)N[C@@H](CC(=O)O)C(=O)N[C@@H](C(C)C)C(=O)N(C)[C@@H](CC(C)C)C(=O)N[C@@H](CCC(N)=O)C(=O)N2CCC[C@@H]2C(=O)N[C@@H](Cc2c[nH]c3ccccc23)C(=O)N[C@@H](Cc2ccc(O)cc2)C(=O)N[C@@H](CC(C)C)C(=O)N[C@H](C(=O)NCC(N)=O)CSCC(=O)N[C@@H](Cc2ccc(F)cc2)C(=O)N(C)[C@@H](Cc2ccccc2)C(=O)N1C` [Example 9253] ({CH2CO}-[Phe(4-F)][NMeF][NMeNle][dP]DV[NMeL]Q[dP]WYLCG-NH2; thioether N-13): the pIC50 was 5.00 to 6.00.

Take `CCCC[C@H]1C(=O)N2C[C@H](O)C[C@@H]2C(=O)N[C@@H](CC(=O)O)C(=O)N[C@@H](C(C)C)C(=O)N(C)[C@@H](Cc2ccccc2)C(=O)N[C@@H](CCC(=O)O)C(=O)N2C[C@H](O)C[C@@H]2C(=O)N[C@@H](Cc2c[nH]c3ccccc23)C(=O)N[C@@H](Cc2ccc(O)cc2)C(=O)N[C@@H](CCCN)C(=O)N[C@H](C(=O)NCC(N)=O)CSCC(=O)N[C@@H](Cc2cc(F)c(F)c(F)c2)C(=O)N(C)[C@@H](Cc2ccc(F)cc2)C(=O)N1C` [Example 10612] ({CH2CO}-[Phe(3,4,5-F3)][NMePhe(4-F)][NMeNle][d(cisHyp)]DV[NMeF]E[d(cisHyp)]WY[Orn]CG-NH2; thioether N-13): the pIC50 was 8.00 to 9.00. On the same count and under the same terms, to `CCCC[C@H]1C(=O)N(C)[C@@H](CCCC)C(=O)N[C@@H](CN)C(=O)N[C@H](C(=O)NCC(N)=O)CSCC(=O)N[C@@H](Cc2ccc(O)cc2)C(=O)N(C)[C@@H](C)C(=O)N[C@@H](CC(N)=O)C(=O)N2CCC[C@H]2C(=O)N[C@@H](CN)C(=O)N[C@@H](CCC(N)=O)C(=O)N2C[C@H](O)C[C@H]2C(=O)N[C@@H](Cc2c[nH]c3ccccc23)C(=O)N[C@@H](CCN)C(=O)N[C@@H](Cc2cn(CC(=O)O)c3ccccc23)C(=O)N1C` [Example 5213] ({CH2CO}-Y[NMeA]NP[Dap]Q[Hyp]W[Dab][Trp(1-CH2COOH)][NMeNle][NMeNle][Dap]CG-NH2; thioether N-14) belongs 8.00 to 9.00. Still for that read-out and setting: to `COCC[C@H]1C(=O)N2C[C@@H](O)C[C@@H]2C(=O)N[C@@H](CC(=O)O)C(=O)N[C@@H](C(C)C)C(=O)N(C)[C@@H](Cc2ccccc2)C(=O)N[C@@H](CCC(=O)O)C(=O)N2CCOC[C@@H]2C(=O)N[C@@H](Cc2c[nH]c3ccccc23)C(=O)N[C@@H](Cc2ccc(O)cc2)C(=O)N[C@@H](CCCN)C(=O)N[C@H](C(=O)NCC(N)=O)CSCC(=O)N[C@@H](Cc2cc(F)c(F)c(F)c2)C(=O)N(C)[C@@H](Cc2ccccc2)C(=O)N1C` [Example 9268] ({CH2CO}-[Phe(3,4,5-F3)][NMeF][NMehSer](Me)[dHyp]DV[NMeF]E[X1]WY[Orn]CG-NH2; thioether N-13) belongs 8.00 to 9.00; to `CCCC[C@H]1C(=O)N2C[C@H](O)C[C@@H]2C(=O)N[C@@H](CC(=O)O)C(=O)N[C@@H](C(C)C)C(=O)N(C)[C@@H](Cc2ccccc2)C(=O)N[C@@H](Cc2ccc(O)cc2)C(=O)N2CCOC[C@@H]2C(=O)N[C@@H](Cc2c[nH]c3ccccc23)C(=O)N[C@@H](Cc2ccc(O)cc2)C(=O)N[C@@H](CC(C)C)C(=O)N[C@H](C(=O)NCC(N)=O)CSCC(=O)N[C@@H](Cc2cc(F)c(F)c(F)c2)C(=O)N(C)[C@@H](CCC(=O)O)C(=O)N1C` [Example 10177] ({CH2CO}-[Phe(3,4,5-F3)][NMeE][NMeNle][d(cisHyp)]DV[NMeF]Y[X1]WYLCG-NH2; thioether N-13), 7.00 to 8.00.

The same assay, now with this note: PD-L1-His 10 nM, PD-1-Ig 20 nM; read-out: HTRF Human PD-L1/PD-1 Binding Assay IC50.
As for `CCCC[C@H]1C(=O)N(C)CC(=O)N[C@@H](CC(=O)O)C(=O)NC(C(C)c2ccccc2)C(=O)N(C)[C@@H](Cc2ccccc2)C(=O)N[C@@H](Cc2ccc(O)cc2)C(=O)N(C)CC(=O)N[C@@H](Cc2c[nH]c3ccccc23)C(=O)N[C@@H](Cc2ccc(O)cc2)C(=O)N[C@@H](CC(C)C)C(=O)N[C@H](C(=O)NCC(N)=O)CSCC(=O)N[C@@H](Cc2ccccc2)C(=O)N(C)[C@@H](Cc2ccccc2)C(=O)N1C` (single isomer, unassigned) [Example 3230-D], the pIC50 was 5.00.
